# According to PMC11766267 (International Journal of Molecular Sciences, 2025):
# Several values for one entry are separate records, joined by “and”; a condition that tells them apart may be missing. Equal entries are not always repeated. Where two headings read alike, the source gives them in different places.
# Legend:
# [1] = tested on: MCF-7a; assay: In vitro anti-estrogenic activity assay, MCF-7a
# [2] = molecular target: EGFR (Homo sapiens, UniProt P00533); assay: In vitro protein kinase inhibition assay (ELISA kit), EGFR
# Chain of EGFR (P00533 25-1210): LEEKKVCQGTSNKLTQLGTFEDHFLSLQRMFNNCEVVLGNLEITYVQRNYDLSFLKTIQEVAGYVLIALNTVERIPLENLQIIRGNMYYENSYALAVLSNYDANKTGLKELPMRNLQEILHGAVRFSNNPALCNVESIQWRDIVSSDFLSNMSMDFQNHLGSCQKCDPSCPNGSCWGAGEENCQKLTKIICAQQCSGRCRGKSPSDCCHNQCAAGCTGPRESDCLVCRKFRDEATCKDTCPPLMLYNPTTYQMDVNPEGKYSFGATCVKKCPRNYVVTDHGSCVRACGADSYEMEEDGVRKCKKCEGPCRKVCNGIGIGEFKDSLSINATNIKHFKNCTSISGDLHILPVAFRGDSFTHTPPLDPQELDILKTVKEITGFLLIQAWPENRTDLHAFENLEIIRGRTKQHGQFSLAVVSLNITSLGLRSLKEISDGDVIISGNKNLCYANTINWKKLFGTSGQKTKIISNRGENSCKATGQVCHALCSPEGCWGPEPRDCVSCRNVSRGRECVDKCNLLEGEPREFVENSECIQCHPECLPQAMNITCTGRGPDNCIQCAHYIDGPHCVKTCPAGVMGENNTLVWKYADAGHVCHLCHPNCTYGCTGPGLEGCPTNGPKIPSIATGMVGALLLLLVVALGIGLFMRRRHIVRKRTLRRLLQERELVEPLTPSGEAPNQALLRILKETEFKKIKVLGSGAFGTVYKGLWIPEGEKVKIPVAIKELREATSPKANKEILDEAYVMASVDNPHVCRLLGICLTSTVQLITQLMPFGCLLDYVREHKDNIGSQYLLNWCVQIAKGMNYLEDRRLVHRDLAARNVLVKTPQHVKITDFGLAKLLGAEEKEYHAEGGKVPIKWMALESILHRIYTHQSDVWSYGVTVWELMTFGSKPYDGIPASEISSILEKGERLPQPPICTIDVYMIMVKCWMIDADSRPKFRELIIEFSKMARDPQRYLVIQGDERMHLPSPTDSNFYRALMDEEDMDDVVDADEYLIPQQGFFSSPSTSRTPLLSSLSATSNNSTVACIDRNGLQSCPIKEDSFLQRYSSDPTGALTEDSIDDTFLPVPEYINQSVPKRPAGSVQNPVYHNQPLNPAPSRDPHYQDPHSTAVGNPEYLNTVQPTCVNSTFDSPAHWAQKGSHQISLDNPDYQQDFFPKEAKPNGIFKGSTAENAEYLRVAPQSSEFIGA
# [3] = molecular target: HER2 (Homo sapiens, UniProt P04626); assay: In vitro protein kinase inhibition assay (ELISA kit), HER2
# Chain of HER2 (P04626 23-1255): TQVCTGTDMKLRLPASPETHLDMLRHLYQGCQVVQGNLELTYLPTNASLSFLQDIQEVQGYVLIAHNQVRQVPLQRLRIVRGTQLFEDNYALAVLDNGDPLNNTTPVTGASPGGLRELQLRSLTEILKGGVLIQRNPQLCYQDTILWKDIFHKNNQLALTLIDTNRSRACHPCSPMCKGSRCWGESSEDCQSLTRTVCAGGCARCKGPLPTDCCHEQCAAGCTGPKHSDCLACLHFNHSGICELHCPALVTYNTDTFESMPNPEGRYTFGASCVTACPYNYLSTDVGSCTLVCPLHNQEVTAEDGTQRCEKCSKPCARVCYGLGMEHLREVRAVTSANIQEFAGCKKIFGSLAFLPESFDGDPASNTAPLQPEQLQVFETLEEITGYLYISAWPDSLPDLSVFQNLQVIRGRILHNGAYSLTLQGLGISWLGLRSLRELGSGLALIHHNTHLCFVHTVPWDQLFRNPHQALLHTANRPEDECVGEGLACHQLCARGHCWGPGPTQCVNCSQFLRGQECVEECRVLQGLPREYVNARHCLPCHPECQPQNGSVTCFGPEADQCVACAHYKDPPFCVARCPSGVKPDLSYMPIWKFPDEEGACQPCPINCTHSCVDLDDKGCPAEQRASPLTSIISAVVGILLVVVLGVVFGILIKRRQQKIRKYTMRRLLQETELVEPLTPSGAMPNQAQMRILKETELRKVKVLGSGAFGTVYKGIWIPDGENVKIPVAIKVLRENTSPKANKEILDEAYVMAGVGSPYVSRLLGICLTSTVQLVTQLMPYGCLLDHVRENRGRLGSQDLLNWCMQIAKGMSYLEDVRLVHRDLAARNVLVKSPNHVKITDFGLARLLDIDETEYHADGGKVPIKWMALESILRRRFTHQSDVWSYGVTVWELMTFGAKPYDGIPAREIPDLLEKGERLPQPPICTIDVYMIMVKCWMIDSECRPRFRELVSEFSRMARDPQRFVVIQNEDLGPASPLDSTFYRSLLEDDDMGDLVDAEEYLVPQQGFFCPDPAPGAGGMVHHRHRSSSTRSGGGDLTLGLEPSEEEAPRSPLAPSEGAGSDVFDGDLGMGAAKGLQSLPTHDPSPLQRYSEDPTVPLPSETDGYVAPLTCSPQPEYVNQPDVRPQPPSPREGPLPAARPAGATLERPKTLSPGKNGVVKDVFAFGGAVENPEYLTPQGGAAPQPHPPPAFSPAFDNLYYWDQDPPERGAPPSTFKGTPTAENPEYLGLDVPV
# [4] = molecular target: CDK2 (Homo sapiens, UniProt P24941); assay: In vitro protein kinase inhibition assay (ELISA kit), CDK2
# [5] = molecular target: T1, aromatase (CYP19A, EC 1.14.14.14) (Homo sapiens, UniProt P11511); assay: biochemical; details: individual Data 1-3
# T1 construct: Microsomal samples were isolated from tissue using the Microsome Isolation Kit; tissue BioVision K983-100; host or cells: microsomes from an unnamed tissue
# T1 sequence (P11511 1-503): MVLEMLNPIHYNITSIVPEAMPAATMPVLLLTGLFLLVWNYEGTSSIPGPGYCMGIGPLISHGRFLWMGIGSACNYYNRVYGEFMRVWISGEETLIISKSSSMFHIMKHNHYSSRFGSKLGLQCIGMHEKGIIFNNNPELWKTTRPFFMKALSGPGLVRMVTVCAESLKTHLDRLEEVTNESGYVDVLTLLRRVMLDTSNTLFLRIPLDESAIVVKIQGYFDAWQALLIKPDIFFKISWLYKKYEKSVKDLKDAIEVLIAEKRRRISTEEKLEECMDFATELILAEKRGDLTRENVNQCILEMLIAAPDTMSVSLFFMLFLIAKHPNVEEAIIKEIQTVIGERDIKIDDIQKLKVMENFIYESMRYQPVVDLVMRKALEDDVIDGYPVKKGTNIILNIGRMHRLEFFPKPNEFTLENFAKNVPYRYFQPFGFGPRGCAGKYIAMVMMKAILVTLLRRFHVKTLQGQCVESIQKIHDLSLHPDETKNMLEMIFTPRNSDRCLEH
# Protocol: In vitro aromatase assay was performed using the BioVision Aromatase Activity Assay Kit (Catalog # K983-100; BioVision, Milpitas, CA, USA). Microsomal samples were isolated from tissue using the Microsome Isolation Kit (Cat. #K249; BioVision, Milpitas, CA, USA). A standard curve was established by diluting the Fluorescence Standard provided in the kit to create a 0.5 pmole/µL solution, followed by setting up a series of standards in a white 96-well plate, adjusting the total volume to 100 µL with aromatase assay buffer. For each reaction well, a 2X concentrated mix was prepared by adding 2–48 µL of the microsomal sample and 2 µL of the NADPH generating system, bringing the final volume to 50 µL with aromatase assay buffer. Background controls (no enzyme) and positive controls (with recombinant aromatase) were included. […] After a 10 min incubation at 37 °C, 30 µL of the substrate/NADP+ mixture was added to each well, and fluorescence was measured immediately in kinetic mode for 60 min at 37 °C. Finally, the change in fluorescence was calculated to determine the specific activity of aromatase using the formula provided in the kit protocol.
# [6] = tested on: HCT-116, MDA-MB-231, HeLa, and MCF-7; assay: MTT cytotoxicity assay, ranges stated over several cell lines; type: cell-based; details: Homo sapiens, range over the compounds named
# Protocol: Subsequently, 100 µL of dimethyl sulfoxide was introduced to dissolve the insoluble formazan.
# [7] = tested on: MCF-7; assay: In vitro anti-estrogenic activity assay, MCF-7
# [8] = molecular target: VEGFR-2 (Homo sapiens, UniProt P35968); assay: In vitro protein kinase inhibition assay (ELISA kit), VEGFR-2
# Chain of VEGFR-2 (P35968 20-1356): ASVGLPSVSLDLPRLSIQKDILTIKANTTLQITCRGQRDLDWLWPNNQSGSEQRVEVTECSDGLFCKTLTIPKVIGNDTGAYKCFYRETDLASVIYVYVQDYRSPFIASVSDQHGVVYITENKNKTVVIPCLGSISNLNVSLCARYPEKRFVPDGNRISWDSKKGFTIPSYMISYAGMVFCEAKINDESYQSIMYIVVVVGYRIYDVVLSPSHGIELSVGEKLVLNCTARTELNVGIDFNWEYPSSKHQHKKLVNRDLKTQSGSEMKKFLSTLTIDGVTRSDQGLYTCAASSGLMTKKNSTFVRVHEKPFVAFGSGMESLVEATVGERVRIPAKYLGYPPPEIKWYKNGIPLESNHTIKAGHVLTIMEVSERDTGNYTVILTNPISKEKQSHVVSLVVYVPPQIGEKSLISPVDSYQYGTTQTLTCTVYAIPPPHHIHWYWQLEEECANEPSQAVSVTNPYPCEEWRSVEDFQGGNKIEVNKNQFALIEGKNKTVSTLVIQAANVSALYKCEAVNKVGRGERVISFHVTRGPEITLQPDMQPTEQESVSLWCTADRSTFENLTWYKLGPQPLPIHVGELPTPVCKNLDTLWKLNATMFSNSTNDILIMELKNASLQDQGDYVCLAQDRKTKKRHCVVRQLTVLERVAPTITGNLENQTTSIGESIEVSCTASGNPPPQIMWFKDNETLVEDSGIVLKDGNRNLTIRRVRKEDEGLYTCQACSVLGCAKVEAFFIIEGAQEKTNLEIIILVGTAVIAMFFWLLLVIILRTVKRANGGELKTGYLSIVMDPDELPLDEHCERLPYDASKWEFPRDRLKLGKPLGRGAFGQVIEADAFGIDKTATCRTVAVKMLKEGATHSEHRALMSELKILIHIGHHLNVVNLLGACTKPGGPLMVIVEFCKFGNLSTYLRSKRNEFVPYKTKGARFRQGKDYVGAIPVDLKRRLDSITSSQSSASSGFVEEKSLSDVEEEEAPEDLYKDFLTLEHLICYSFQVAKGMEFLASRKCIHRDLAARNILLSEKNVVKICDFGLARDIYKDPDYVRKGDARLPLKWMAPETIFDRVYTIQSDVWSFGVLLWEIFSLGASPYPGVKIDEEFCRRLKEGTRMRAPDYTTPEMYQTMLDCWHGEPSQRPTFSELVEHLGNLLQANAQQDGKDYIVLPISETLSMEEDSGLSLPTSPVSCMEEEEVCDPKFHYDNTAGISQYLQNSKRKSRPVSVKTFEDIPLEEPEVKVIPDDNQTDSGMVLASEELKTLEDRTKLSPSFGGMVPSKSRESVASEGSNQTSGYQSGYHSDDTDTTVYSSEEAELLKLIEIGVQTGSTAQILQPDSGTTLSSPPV
# [9] = cell count relative to the control (17β-E2)
smiles,measurement,setting,value
"O=C(/C=C/c1ccccc1)c1ccccc1 [Compound 4a, (E)-Chalcone]",Cell Proliferation MCF-7a %,[1]; [9],102%
same,Cell Proliferation MCF-7a Cell Count,[1]; mean ± SD of triplicate,"21,155 ± 611"
same,Inhibition in MCF-7a,[1]; relative to control,no inhibition
same,IC50,[2],367 ± 12 nM
same,Inhibition (%) EGFR,"[2]; 0.01 µM, individual Data 1-3",10.8% and 13.9%
same,Inhibition (%) EGFR,"[2]; 0.1 µM, individual Data 1-3",34.2% and 37.1%
same,Inhibition (%) EGFR,"[2]; 1 µM, individual Data 1-3",68.2% and 66.7%
same,Inhibition (%) EGFR,"[2]; 10 µM, individual Data 1-3",83.2% and 86.9%
same,Inhibition (%) EGFR,"[2]; 100 µM, individual Data 1-3",93.9% and 94.2%
same,inhibition at 0.01 µM,"[2]; read-out: Inhibition (%) EGFR, 0.01 µM, individual Data 1-3",12.3%
same,inhibition at 0.1 µM,"[2]; read-out: Inhibition (%) EGFR, 0.1 µM, individual Data 1-3",35.8%
same,inhibition at 1 µM,"[2]; read-out: Inhibition (%) EGFR, 1 µM, individual Data 1-3",69.9%
same,inhibition at 10 µM,"[2]; read-out: Inhibition (%) EGFR, 10 µM, individual Data 1-3",85.6%
same,inhibition at 100 µM,"[2]; read-out: Inhibition (%) EGFR, 100 µM, individual Data 1-3",95.1%
same,IC50,[3],691 ± 27 nM
same,Inhibition (%) Her2,"[3]; 0.01 µM, individual Data 1-3",10.6% and 14.2%
same,Inhibition (%) Her2,"[3]; 0.1 µM, individual Data 1-3",21.8% and 24.9%
same,Inhibition (%) Her2,"[3]; 1 µM, individual Data 1-3",60.9% and 59.5%
same,Inhibition (%) Her2,"[3]; 10 µM, individual Data 1-3",78% and 81.2%
same,Inhibition (%) Her2,"[3]; 100 µM, individual Data 1-3",89.9% and 93.1%
same,inhibition at 0.01 µM,"[3]; read-out: Inhibition (%) Her2, 0.01 µM, individual Data 1-3",12.3%
same,inhibition at 0.1 µM,"[3]; read-out: Inhibition (%) Her2, 0.1 µM, individual Data 1-3",23.8%
same,inhibition at 1 µM,"[3]; read-out: Inhibition (%) Her2, 1 µM, individual Data 1-3",62.2%
same,inhibition at 10 µM,"[3]; read-out: Inhibition (%) Her2, 10 µM, individual Data 1-3",79.1%
same,inhibition at 100 µM,"[3]; read-out: Inhibition (%) Her2, 100 µM, individual Data 1-3",91%
same,IC50,[4],840 ± 26 nM
same,Inhibition (%) CDK2,"[4]; 0.01 µM, individual Data 1-3",9.7% and 12%
same,Inhibition (%) CDK2,"[4]; 0.1 µM, individual Data 1-3",25.6% and 28.78%
same,Inhibition (%) CDK2,"[4]; 1 µM, individual Data 1-3",53.8% and 52.78%
same,Inhibition (%) CDK2,"[4]; 10 µM, individual Data 1-3",72.98% and 76%
same,Inhibition (%) CDK2,"[4]; 100 µM, individual Data 1-3",88.7% and 92.7%
same,inhibition at 0.01 µM,"[4]; read-out: Inhibition (%) CDK2, 0.01 µM, individual Data 1-3",11.8%
same,inhibition at 0.1 µM,"[4]; read-out: Inhibition (%) CDK2, 0.1 µM, individual Data 1-3",27.7%
same,inhibition at 1 µM,"[4]; read-out: Inhibition (%) CDK2, 1 µM, individual Data 1-3",54%
same,inhibition at 10 µM,"[4]; read-out: Inhibition (%) CDK2, 10 µM, individual Data 1-3",74.1%
same,inhibition at 100 µM,"[4]; read-out: Inhibition (%) CDK2, 100 µM, individual Data 1-3",90.3%
same,Inhibition (%) Aromatase,[5]; 0.01 µM,19.87% and 20.56%
same,Inhibition (%) Aromatase,[5]; 0.1 µM,28.65% and 29.76%
same,Inhibition (%) Aromatase,[5]; 1 µM,63% and 62.76%
same,Inhibition (%) Aromatase,[5]; 10 µM,82.87% and 83.45%
same,Inhibition (%) Aromatase,[5]; 100 µM,92.23% and 94%
same,inhibition at 0.01 µM,"[5]; read-out: Inhibition (%) Aromatase, 0.01 µM",20%
same,inhibition at 0.1 µM,"[5]; read-out: Inhibition (%) Aromatase, 0.1 µM",29%
same,inhibition at 1 µM,"[5]; read-out: Inhibition (%) Aromatase, 1 µM",64%
same,inhibition at 10 µM,"[5]; read-out: Inhibition (%) Aromatase, 10 µM",83%
same,inhibition at 100 µM,"[5]; read-out: Inhibition (%) Aromatase, 100 µM",93%
same,IC50,"[6]; HCT-116 and HeLa, read-out: IC50 values, range against HCT-116 and HeLa",6590 to 22600 nM
same,IC50,"[6]; MDA-MB-231 and MCF-7, read-out: IC50 values, range against MDA-MB-231 and MCF-7",2080 to 13600 nM
same,Cell Proliferation MCF-7 %,[7]; [9],79%
same,Cell Proliferation MCF-7 Cell Count,[7]; mean ± SD of triplicate,"14,553 ± 518"
same,Reduction of growth/cell count (inhibition) in MCF-7,[7]; relative to control,21%
same,IC50,[8],1550 ± 53 nM
same,Inhibition (%) VEGFR2,"[8]; 0.01 µM, individual Data 1-3",4.43% and 2.43% and 5.78%
same,Inhibition (%) VEGFR2,"[8]; 0.1 µM, individual Data 1-3",19.78% and 23.4%
same,Inhibition (%) VEGFR2,"[8]; 1 µM, individual Data 1-3",40.5% and 38.5%
same,Inhibition (%) VEGFR2,"[8]; 10 µM, individual Data 1-3",69% and 76.6%
same,Inhibition (%) VEGFR2,"[8]; 100 µM, individual Data 1-3",86.5% and 92.5%
same,inhibition at 0.1 µM,"[8]; read-out: Inhibition (%) VEGFR2, 0.1 µM, individual Data 1-3",21.6%
same,inhibition at 1 µM,"[8]; read-out: Inhibition (%) VEGFR2, 1 µM, individual Data 1-3",43.5%
same,inhibition at 10 µM,"[8]; read-out: Inhibition (%) VEGFR2, 10 µM, individual Data 1-3",73.3%
same,inhibition at 100 µM,"[8]; read-out: Inhibition (%) VEGFR2, 100 µM, individual Data 1-3",89.2%
